Measured values taken from patent US10131652B2, “Pyrimidinyloxy benzene derivatives as herbicides” (E. I. DU PONT DE NEMOURS AND COMPANY, priority 2014, dated 2018).

Assays:
Assay in all cases: Test D pre-/postemergence plant response
Assay type in all cases: in vivo
[1] = test system: galium (catchweed bedstraw, Galium aparine)
Outline: (§1)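 Pre-/post-emergence greenhouse test. Pre: seeded loam+sand, sprayed same day. Post: 1–4 leaf plants (2–18 cm), peat/vermiculite mix. Formulation: non-phytotoxic solvent + surfactant. Scored visually d13–15, 0–100 vs control.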

[2] = test system: barnyardgrass (Echinochloa crus-galli)
Outline: as §1

[3] = test system: yellow nutsedge (Cyperus esculentus)
Outline: as §1

[4] = test system: corn (Zea mays)
Outline: as §1

[5] = test system: giant foxtail (Setaria faberii)
Outline: as §1

[6] = test system: pigweed (Amaranthus retroflexus)
Outline: as §1

[7] = test system: blackgrass (Alopecurus myosuroides)
Outline: as §1

[8] = test system: waterhemp (common waterhemp, Amaranthus rudis)
Outline: as §1

[9] = test system: morningglory (Ipomoea coccinea)
Outline: as §1

[10] = test system: soybean (Glycine max)
Outline: as §1

[11] = test system: large (Lg) crabgrass (Digitaria sanguinalis)
Outline: as §1

[12] = test system: oilseed rape (Brassica napus)
Outline: as §1

[13] = test system: ragweed (common ragweed, Ambrosia elatior)
Outline: as §1

[14] = test system: johnsongrass (Sorghum halepense)
Outline: as §1

[15] = test system: Italian ryegrass (Lolium multiflorum)
Outline: as §1

[16] = test system: velvetleaf (Abutilon theophrasti)
Outline: as §1

[17] = test system: winter wheat (Triticum aestivum)
Outline: as §1

[18] = test system: lambsquarters (Chenopodium album)
Outline: as §1

[19] = Postemergence, 16 g ai/ha, scale 0 to 100 (0 no effect, 100 complete control)
[20] = Postemergence, 31 g ai/ha, scale 0 to 100 (0 no effect, 100 complete control)
[21] = Postemergence, 62 g ai/ha, scale 0 to 100, 0 no effect, 100 complete control
[22] = Postemergence, 125 g ai/ha, scale 0 to 100, 0 no effect, 100 complete control
[23] = Preemergence, 16 g ai/ha, scale 0 to 100 (0 no effect, 100 complete control)
[24] = Preemergence, 31 g ai/ha, scale 0 to 100 (0 no effect, 100 complete control)
[25] = Preemergence, 62 g ai/ha, scale 0 to 100 (0 no effect, 100 complete control)

## Fc1ccc(Oc2ncc(Cl)cn2)c(-c2cc(C(F)F)on2)c1Cl [Compound 96]
[1]; [19]
  Galium plant response rating: 70
[1]; [20]
  Galium plant response rating: 90
[1]; [21]
  Plant response rating, Galium: 80
[1]; [22]
  Plant response rating, Galium: 98
[2]; [19]
  Barnyardgrass plant response rating: 0
[2]; [20]
  Barnyardgrass plant response rating: 0
[2]; [21]
  Plant response rating, Barnyardgrass: 5
[2]; [22]
  Plant response rating, Barnyardgrass: 5
[3]; [19]
  Nutsedge, Yellow plant response rating: 0
[3]; [20]
  Nutsedge, Yellow plant response rating: 5
[3]; [21]
  Plant response rating, Nutsedge, Yellow: 5
[3]; [22]
  Plant response rating, Nutsedge, Yellow: 5
[4]; [19]
  Corn plant response rating: 5
[4]; [20]
  Corn plant response rating: 15
[4]; [21]
  Plant response rating, Corn: 5
[4]; [22]
  Plant response rating, Corn: 5
[5]; [19]
  Foxtail, Giant plant response rating: 0
[5]; [20]
  Foxtail, Giant plant response rating: 5
[5]; [21]
  Plant response rating, Foxtail, Giant: 10
[5]; [22]
  Plant response rating, Foxtail, Giant: 10
[6]; [19]
  Pigweed plant response rating: 98
[6]; [20]
  Pigweed plant response rating: 95
[6]; [21]
  Plant response rating, Pigweed: 98
[6]; [22]
  Plant response rating, Pigweed: 98
[7]; [19]
  Blackgrass plant response rating: 0
[7]; [20]
  Blackgrass plant response rating: 10
[7]; [21]
  Plant response rating, Blackgrass: 10
[7]; [22]
  Plant response rating, Blackgrass: 20
[8]; [19]
  Waterhemp plant response rating: 85
[8]; [20]
  Waterhemp plant response rating: 95
[8]; [21]
  Plant response rating, Waterhemp: 98
[8]; [22]
  Plant response rating, Waterhemp: 100
[9]; [19]
  Morningglory plant response rating: 85
[9]; [20]
  Morningglory plant response rating: 40
[9]; [21]
  Plant response rating, Morningglory: 40
[9]; [22]
  Plant response rating, Morningglory: 30
[10]; [19]
  Soybean plant response rating: 15
[10]; [20]
  Soybean plant response rating: 50
[10]; [21]
  Plant response rating, Soybean: 55
[10]; [22]
  Plant response rating, Soybean: 35
[11]; [19]
  Crabgrass, Large plant response rating: 5
[11]; [20]
  Crabgrass, Large plant response rating: 5
[11]; [21]
  Plant response rating, Crabgrass, Large: 5
[11]; [22]
  Plant response rating, Crabgrass, Large: 10
[12]; [19]
  Oilseed Rape plant response rating: 40
[12]; [20]
  Oilseed Rape plant response rating: 45
[12]; [21]
  Plant response rating, Oilseed Rape: 65
[12]; [22]
  Plant response rating, Oilseed Rape: 65
[13]; [19]
  Ragweed plant response rating: 0
[13]; [20]
  Ragweed plant response rating: 10
[13]; [21]
  Plant response rating, Ragweed: 10
[13]; [22]
  Plant response rating, Ragweed: 40
[14]; [19]
  Johnsongrass plant response rating: 0
[14]; [20]
  Johnsongrass plant response rating: 0
[14]; [21]
  Plant response rating, Johnsongrass: 5
[14]; [22]
  Plant response rating, Johnsongrass: 10
[15]; [19]
  Ryegrass, Italian plant response rating: 0
[15]; [20]
  Ryegrass, Italian plant response rating: 5
[15]; [21]
  Plant response rating, Ryegrass, Italian: 10
[15]; [22]
  Plant response rating, Ryegrass, Italian: 10
[16]; [19]
  Velvetleaf plant response rating: 20
[16]; [20]
  Velvetleaf plant response rating: 35
[16]; [21]
  Plant response rating, Velvetleaf: 35
[16]; [22]
  Plant response rating, Velvetleaf: 35
[17]; [19]
  Wheat plant response rating: 0
[17]; [20]
  Wheat plant response rating: 0
[17]; [21]
  Plant response rating, Wheat: 0
[17]; [22]
  Plant response rating, Wheat: 10
[18]; [19]
  Lambsquarters plant response rating: 65
[18]; [20]
  Lambsquarters plant response rating: 65
[18]; [21]
  Plant response rating, Lambsquarters: 90
[18]; [22]
  Plant response rating, Lambsquarters: 95

## COc1cccc(Oc2ncc(Cl)cn2)c1-c1cc(C(F)(F)F)no1 [Compound 104]
[1]; Preemergence, 125 g ai/ha
  Plant response rating (scale 0 to 100), Galium: 70
[1]; [23]
  Plant response rating, Galium: 90
[1]; [24]
  Plant response rating, Galium: 80
[1]; [25]
  Plant response rating, Galium: 75
[2]; Preemergence, 62 g ai/ha
  Plant response rating (scale 0 to 100), Barnyardgrass: 25
[2]; Preemergence, 125 g ai/ha
  Plant response rating (scale 0 to 100), Barnyardgrass: 70
[2]; [23]
  Plant response rating, Barnyardgrass: 0
[2]; [24]
  Plant response rating, Barnyardgrass: 10
[3]; Preemergence, 125 g ai/ha
  Plant response rating (scale 0 to 100), Nutsedge, Yellow: 0
[3]; [23]
  Plant response rating, Nutsedge, Yellow: 0
[3]; [24]
  Plant response rating, Nutsedge, Yellow: 0
[3]; [25]
  Plant response rating, Nutsedge, Yellow: 0
[4]; Preemergence, 125 g ai/ha
  Plant response rating (scale 0 to 100), Corn: 0
[4]; [23]
  Plant response rating, Corn: 0
[4]; [24]
  Plant response rating, Corn: 0
[4]; [25]
  Plant response rating, Corn: 0
[5]; Preemergence, 125 g ai/ha
  Plant response rating (scale 0 to 100), Foxtail, Giant: 100
[5]; [23]
  Plant response rating, Foxtail, Giant: 30
[5]; [24]
  Plant response rating, Foxtail, Giant: 80
[5]; [25]
  Plant response rating, Foxtail, Giant: 90
[6]; Preemergence, 125 g ai/ha
  Plant response rating (scale 0 to 100), Pigweed: 100
[6]; [23]
  Plant response rating, Pigweed: 100
[6]; [24]
  Plant response rating, Pigweed: 100
[6]; [25]
  Plant response rating, Pigweed: 100
[7]; Preemergence, 125 g ai/ha
  Plant response rating (scale 0 to 100), Blackgrass: 30
[7]; [23]
  Plant response rating, Blackgrass: 0
[7]; [24]
  Plant response rating, Blackgrass: 0
[7]; [25]
  Plant response rating, Blackgrass: 0
[8]; Preemergence, 125 g ai/ha
  Plant response rating (scale 0 to 100), Waterhemp: 100
[8]; [23]
  Plant response rating, Waterhemp: 100
[8]; [24]
  Plant response rating, Waterhemp: 100
[8]; [25]
  Plant response rating, Waterhemp: 100
[9]; Preemergence, 125 g ai/ha
  Plant response rating (scale 0 to 100), Morningglory: 25
[9]; [23]
  Plant response rating, Morningglory: 5
[9]; [24]
  Plant response rating, Morningglory: 5
[9]; [25]
  Plant response rating, Morningglory: 25
[10]; Preemergence, 125 g ai/ha
  Plant response rating (scale 0 to 100), Soybean: 25
[10]; [23]
  Plant response rating, Soybean: 10
[10]; [24]
  Plant response rating, Soybean: 20
[10]; [25]
  Plant response rating, Soybean: 25
[11]; Preemergence, 125 g ai/ha
  Plant response rating (scale 0 to 100), Crabgrass, Large: 100
[11]; [23]
  Plant response rating, Crabgrass, Large: 65
[11]; [24]
  Plant response rating, Crabgrass, Large: 85
[11]; [25]
  Plant response rating, Crabgrass, Large: 98
[12]; Preemergence, 125 g ai/ha
  Plant response rating (scale 0 to 100), Oilseed Rape: 50
[12]; [23]
  Plant response rating, Oilseed Rape: 0
[12]; [24]
  Plant response rating, Oilseed Rape: 0
[12]; [25]
  Plant response rating, Oilseed Rape: 30
[13]; Preemergence, 125 g ai/ha
  Plant response rating (scale 0 to 100), Ragweed: 60
[13]; [23]
  Plant response rating, Ragweed: 40
[13]; [24]
  Plant response rating, Ragweed: 25
[13]; [25]
  Plant response rating, Ragweed: 55
[14]; Preemergence, 125 g ai/ha
  Plant response rating (scale 0 to 100), Johnsongrass: 65
[14]; [23]
  Plant response rating, Johnsongrass: 5
[14]; [24]
  Plant response rating, Johnsongrass: 20
[14]; [25]
  Plant response rating, Johnsongrass: 15
[15]; Preemergence, 125 g ai/ha
  Plant response rating (scale 0 to 100), Ryegrass, Italian: 5
[15]; [23]
  Plant response rating, Ryegrass, Italian: 0
[15]; [24]
  Plant response rating, Ryegrass, Italian: 0
[15]; [25]
  Plant response rating, Ryegrass, Italian: 0
[16]; Preemergence, 125 g ai/ha
  Plant response rating (scale 0 to 100), Velvetleaf: 65
[16]; [23]
  Plant response rating, Velvetleaf: 25
[16]; [24]
  Plant response rating, Velvetleaf: 50
[16]; [25]
  Plant response rating, Velvetleaf: 70
[17]; Preemergence, 125 g ai/ha
  Plant response rating (scale 0 to 100), Wheat: 5
[17]; [23]
  Plant response rating, Wheat: 0
[17]; [24]
  Plant response rating, Wheat: 0
[17]; [25]
  Plant response rating, Wheat: 5
[18]; Preemergence, 125 g ai/ha
  Plant response rating (scale 0 to 100), Lambsquarters: 90
[18]; [23]
  Plant response rating, Lambsquarters: 65
[18]; [24]
  Plant response rating, Lambsquarters: 80
[18]; [25]
  Plant response rating, Lambsquarters: 90
